Source: patent US9433601B2, “Chewing gum compositions comprising cannabinoids” (Stichting Sanammad, priority 2008, dated 2016)

Assay: Degradation of THC during preparation of the chewing gum (extraction and HPLC)
Type: physicochemical
Conditions: gum base heated till 90° C.; main breakdown product dihydrocannabinol
Description: Samples were prepared by putting one gum in a 10.0 ml glass laboratory tube. 5.00 ml ethanol was added and the tube was shaken 3 times with a 5 minute interval. Then 5.00 ml mobile phase (acetonitrile: H2O+0.1% formic acid) was added. The tube was shaken and the gum was mashed with a Pasteur pipette. Then the solution was shaken again and the sample was filtered through a 0.2 micrometer filter. This is the impurity solution. An assay solution was prepared by diluting the impurity solution 100 times with mobile phase. The calculated amount of THC is based upon comparison with a reference solution with an exactly known amount of THC. Purities are calculated as peak area/sum of area's*100%. Impurities present in the placebo are not considered and known impurities are corrected with known response factors.

## CCCCCc1cc(O)c2c(c1)OC(C)(C)[C@@H]1CCC(C)=C[C@@H]21 [THC, (−)-(6aR,10aR)-6,6,9-trimethyl-3-pentyl-6a,7,8,10a-tetrahydro-6H-benzo[c]chromen-1-ol]
  degradation of THC during the preparation of the chewing gum: only a slight degradation
